Experimental data taken from patent US10538535B2, “Antitumoral compounds” (priority 2017, dated 2020).

Legend:
Test in all cases: cells
PSN1 cells = conditions: Homo sapiens, PSN1, 72 h; for IC (TGI): read-out: TGI; for CC50: read-out: LC50
Description: (§1) The aim of this assay is to evaluate the in vitro cytostatic (ability to delay or arrest tumor cell growth) or cytotoxic (ability to kill tumor cells) activity of the samples being tested.
(§2) A colorimetric assay, using sulforhodamine B (SRB) reaction has been adapted to provide a quantitative measurement of cell growth and viability (following the technique described by Skehan et al. J. Natl. Cancer Inst. 1990, 82, 1107-1112). Another colorimetric assay based on 3-(4,5-Dimethylthiazol-2-yl)-2,5-diphenyltetrazolium bromide (MTT) reduction to a purple formazan has been also used to assess the antiproliferative activity (following the technique described by Mosmann et al. J. Immunol. Meth. 1983, 65, 55-63).
(§3) These forms of assays employ 96-well cell culture microplates following the standards of the American National Standards Institute and the Society for Laboratory Automation and Screening (ANSI SLAS 1-2004 (R2012) Oct. 12, 2011. All the cell lines used in this study were obtained from the American Type Culture Collection (ATCC) and derive from different types of human cancer.
(§4) A549, HT29, MDA-MB-231 and PSN1 cells were maintained in Dulbecco's Modified Eagle Medium (DMEM) while PC-3 and 22Rv1 cells were maintained in Roswell Park Memorial Institute Medium (RPMI). All cell lines were supplemented with 10% Fetal Bovine Serum (FBS), 2 mM L-glutamine, 100 U/mL penicillin, and 100 […] at 37° C., 5% CO2 and 98% humidity. For the experiments, cells were harvested from subconfluent cultures using trypsinization and resuspended in fresh medium before counting and plating.
(§5) A549, HT29, MDA-MB-231 and PSN1 cells were seeded in 96 well microtiter plates, at 5000 cells per well in aliquots of 150 μL, and allowed to attach to the plate surface for 18 hours (overnight) in drug free medium. After that, one control (untreated) plate of each cell line was fixed (as described below) and used for time zero reference value. Culture plates were then treated with test compounds (50 μL aliquots of 4× stock solutions in complete culture medium plus 4% DMSO) using ten 2/5 serial dilutions (concentrations ranging from 10 to 0.003 μg/mL) and triplicate cultures (1% final concentration in DMSO). After 72 hours treatment, the antitumor effect was measured by using the SRB methodology: Briefly, cells were washed twice with PBS, fixed for 15 min in 1% glutaraldehyde solution at room temperature, rinsed twice in PBS, and stained in 0.4% SRB solution for 30 min at room temperature. Cells were then rinsed several times with 1% acetic acid solution and air-dried at room temperature.
(§6) Effects on cell growth and survival were estimated by applying the NCI algorithm (Boyd M R and Paull K D. Drug Dev. Res. 1995, 34, 91-104). The values obtained in triplicate cultures were fitted by nonlinear regression to a four-parameters logistic curve by nonlinear regression analysis.

MDA-MB-231 cells = conditions: Homo sapiens, MDA-MB-231, 72 h; for CC50: read-out: LC50; for IC (TGI): read-out: TGI
Description: as §1, §2, §3, §4, §5, §6

A549 cells = conditions: Homo sapiens, A549, 72 h; for IC (TGI): read-out: TGI; for CC50: read-out: LC50
Description: as §1, §2, §3, §4, §5, §6

HT29 cells = conditions: Homo sapiens, HT-29, 72 h; for IC (TGI): read-out: TGI; for CC50: read-out: LC50
Description: as §1, §2, §3, §4, §5, §6

Row | Compound | GI50 (PSN1 cells; PSN1, 72 hours treatment, SRB) [µM] | IC (TGI) (PSN1 cells) [µM] | CC50 (MDA-MB-231 cells) [µM] | IC (TGI) (MDA-MB-231 cells) [µM] | GI50 (A549 cells) [µM] | IC (TGI) (A549 cells) [µM] | IC (TGI) (HT29 cells) [µM] | CC50 (PSN1 cells) [µM] | CC50 (A549 cells) [µM] | GI50 (HT29 cells) [µM] | CC50 (HT29 cells) [µM] | GI50 (MDA-MB-231 cells) [µM] | GI50 (PSN1 cells) [µM]
1 | COc1ccc2[nH]c3c(c2c1)C[C@@H](CO)N[C@]31CS[C@@H]2c3c(OC(C)=O)c(C)c4c(c3[C@H](COC1=O)N1[C@@H]2[C@H]2c3c(cc(C)c(OC)c3O)C[C@@H]([C@@H]1C#N)N2C)OCO4 [Compound 18-S] | 0.000959 | 0.00134 | 0.00158 | 0.00134 | 0.0017 | 0.00303 | 0.00134 | – | – | – | – | – | –
2 | C=CCOC(=O)NC[C@H]1Cc2c([nH]c3ccc(OC)cc23)[C@@]2(CS[C@@H]3c4c(OC(C)=O)c(C)c5c(c4[C@H](COC2=O)N2[C@@H]3[C@H]3c4c(cc(C)c(OC)c4O)C[C@@H]([C@@H]2C#N)N3C)OCO5)N1 [Compound 25-R] | – | 0.00232 | 0.00838 | 0.00254 | 0.00132 | 0.00243 | 0.00276 | 0.00673 | 0.00992 | 0.00154 | > 0.11 | – | –
3 | C=CCOC(=O)NC[C@@H]1Cc2c([nH]c3ccc(OC)cc23)[C@@]2(CS[C@@H]3c4c(OC(C)=O)c(C)c5c(c4[C@H](COC2=O)N2[C@@H]3[C@H]3c4c(cc(C)c(OC)c4O)C[C@@H]([C@@H]2C#N)N3C)OCO5)N1 [Compound 25-S] | 0.00684 | 0.00926 | 0.0154 | 0.00904 | 0.00717 | 0.00761 | 0.00772 | 0.0143 | > 0.11 | 0.00717 | > 0.11 | 0.00584 | –
4 | COc1ccc2[nH]c3c(c2c1)C[C@H](CN)N[C@]31CS[C@@H]2c3c(OC(C)=O)c(C)c4c(c3[C@H](COC1=O)N1[C@@H]2[C@H]2c3c(cc(C)c(OC)c3O)C[C@@H]([C@@H]1C#N)N2C)OCO4 [Compound 26-R] | 0.000972 | 0.0017 | 0.00146 | 0.00122 | 0.00194 | 0.0034 | 0.00158 | 0.00352 | > 0.122 | 0.000729 | > 0.122 | 0.00117 | –
5 | COc1ccc2[nH]c3c(c2c1)C[C@@H](CN)N[C@]31CS[C@@H]2c3c(OC(C)=O)c(C)c4c(c3[C@H](COC1=O)N1[C@@H]2[C@H]2c3c(cc(C)c(OC)c3O)C[C@@H]([C@@H]1C#N)N2C)OCO4 [Compound 26-S] | 0.00304 | 0.00328 | 0.00389 | 0.00194 | 0.0112 | 0.0219 | 0.00316 | 0.00352 | > 0.122 | 0.00279 | > 0.122 | 0.00134 | –
6 | COc1ccc2[nH]c3c(c2c1)C[C@H](CN)N[C@]31CS[C@@H]2c3c(OC(C)=O)c(C)c4c(c3[C@H](COC1=O)N1[C@@H]2[C@H]2c3c(cc(C)c(OC)c3O)C[C@@H]([C@@H]1O)N2C)OCO4 [Compound 27-R] | 0.000639 | 0.00117 | 0.00086 | 0.000541 | 0.00209 | 0.00393 | 0.000553 | 0.00246 | 0.0101 | 0.000504 | > 0.123 | 0.000307 | –
7 | COc1ccc2[nH]c3c(c2c1)C[C@@H](CN)N[C@]31CS[C@@H]2c3c(OC(C)=O)c(C)c4c(c3[C@H](COC1=O)N1[C@@H]2[C@H]2c3c(cc(C)c(OC)c3O)C[C@@H]([C@@H]1O)N2C)OCO4 [Compound 27-S] | 0.00197 | 0.00283 | 0.00135 | – | 0.00602 | 0.0112 | 0.00135 | 0.00455 | > 0.123 | – | > 0.123 | 0.00119 | –
8 | COc1ccc2[nH]c3c(c2c1)C[C@H](C(=O)O)N[C@]31CS[C@@H]2c3c(OC(C)=O)c(C)c4c(c3[C@H](COC1=O)N1[C@@H]2[C@H]2c3c(cc(C)c(OC)c3O)C[C@@H]([C@@H]1C#N)N2C)OCO4 [Compound 28-R] | – | 0.0358 | 0.0919 | 0.0322 | 0.167 | 0.358 | 0.0334 | 0.0668 | > 1.19 | 0.031 | > 1.19 | 0.0191 | 0.0215
9 | COc1ccc2[nH]c3c(c2c1)C[C@@H](C(=O)O)N[C@]31CS[C@@H]2c3c(OC(C)=O)c(C)c4c(c3[C@H](COC1=O)N1[C@@H]2[C@H]2c3c(cc(C)c(OC)c3O)C[C@@H]([C@@H]1C#N)N2C)OCO4 [Compound 28-S] | – | 0.394 | 0.394 | 0.251 | 0.489 | > 1.19 | 0.346 | 0.692 | > 1.19 | 0.251 | 0.633 | 0.167 | 0.251
10 | COc1ccc2[nH]c3c(c2c1)C[C@H](C(=O)O)N[C@]31CS[C@@H]2c3c(OC(C)=O)c(C)c4c(c3[C@H](COC1=O)N1[C@@H]2[C@H]2c3c(cc(C)c(OC)c3O)C[C@@H]([C@@H]1O)N2C)OCO4 [Compound 29-R] | – | 0.0314 | 0.157 | 0.0277 | 0.0905 | 0.193 | 0.0326 | 0.035 | > 1.21 | 0.0302 | > 1.21 | 0.0169 | 0.0302
11 | COc1ccc2[nH]c3c(c2c1)C[C@@H](C(=O)O)N[C@]31CS[C@@H]2c3c(OC(C)=O)c(C)c4c(c3[C@H](COC1=O)N1[C@@H]2[C@H]2c3c(cc(C)c(OC)c3O)C[C@@H]([C@@H]1O)N2C)OCO4 [Compound 29-S] | – | 0.507 | 0.688 | 0.374 | 0.615 | > 1.21 | 0.531 | 0.688 | > 1.21 | 0.362 | 0.832 | 0.217 | 0.386
12 | COc1c(C)cc2c(c1O)[C@@H]1[C@@H]3[C@@H]4SC[C@]5(NCCc6c5oc5ccccc65)C(=O)OC[C@@H](c5c6c(c(C)c(OC(C)=O)c54)OCO6)N3[C@@H](C#N)[C@H](C2)N1C [Compound 31] | – | 0.0157 | 0.0353 | 0.017 | 0.0196 | 0.0209 | 0.0157 | 0.0431 | 0.0235 | 0.0105 | > 0.131 | 0.00889 | 0.0068
13 | COc1ccc2oc3c(c2c1)CCN[C@]31CS[C@@H]2c3c(OC(C)=O)c(C)c4c(c3[C@H](COC1=O)N1[C@@H]2[C@H]2c3c(cc(C)c(OC)c3O)C[C@@H]([C@@H]1C#N)N2C)OCO4 [Compound 34] | – | 0.0591 | 0.112 | 0.0767 | 0.0591 | 0.0805 | 0.0855 | > 0.126 | > 0.126 | 0.0541 | 0.125 | 0.0453 | 0.0541
14 | COc1c(C)cc2c(c1O)[C@@H]1[C@@H]3[C@@H]4SC[C@]5(N[C@@H](CO)Cc6c5oc5ccccc65)C(=O)OC[C@@H](c5c6c(c(C)c(OC(C)=O)c54)OCO6)N3[C@@H](C#N)[C@H](C2)N1C [Compound 38-R] | 0.000654 | 0.000994 | 0.00201 | 0.000843 | 0.000654 | 0.00104 | 0.000591 | 0.00176 | > 0.126 | 0.000541 | > 0.126 | 0.000453 | –
